This experiment concerns the target IRAK4 (Homo sapiens (Human), UniProt Q9NWZ3). Put plainly: IRAK4 Inhibition Assay. Format: biochemical. Conditions: ATP 500 μM; IRAK4 0.6 nM; 60 min at room temperature. The protocol:
The assays were performed in U-bottom 384-well plates. The final assay volume was 30 μL prepared from 15 μL additions of enzyme and substrates (fluoresceinated peptide and ATP) and test compounds in assay buffer (20 mM HEPES pH 7.2, 10 mM MgCl2, 0.015% Brij 35 and 4 mM DTT). The reaction was initiated by the combination of IRAK4 with substrates and test compounds. The reaction mixture was incubated at room temperature for 60 min. and terminated by adding 45 μL of 35 mM EDTA to each sample. The reaction mixture was analyzed on the Caliper LABCHIP® 3000 (Caliper, Hopkinton, MA) by electrophoretic separation of the fluorescent substrate and phosphorylated product. Inhibition data were calculated by comparison to no enzyme control reactions for 100% inhibition and vehicle-only reactions for 0% inhibition. The final concentrations of reagents in the assays are ATP, 500 μM; FL-IPTSPITTTYFFFKKK peptide 1.5 μM; IRAK4, 0.6 nM; and DMSO, 1.6%.
Chain of IRAK4 (Q9NWZ3 whole entry, species assumed): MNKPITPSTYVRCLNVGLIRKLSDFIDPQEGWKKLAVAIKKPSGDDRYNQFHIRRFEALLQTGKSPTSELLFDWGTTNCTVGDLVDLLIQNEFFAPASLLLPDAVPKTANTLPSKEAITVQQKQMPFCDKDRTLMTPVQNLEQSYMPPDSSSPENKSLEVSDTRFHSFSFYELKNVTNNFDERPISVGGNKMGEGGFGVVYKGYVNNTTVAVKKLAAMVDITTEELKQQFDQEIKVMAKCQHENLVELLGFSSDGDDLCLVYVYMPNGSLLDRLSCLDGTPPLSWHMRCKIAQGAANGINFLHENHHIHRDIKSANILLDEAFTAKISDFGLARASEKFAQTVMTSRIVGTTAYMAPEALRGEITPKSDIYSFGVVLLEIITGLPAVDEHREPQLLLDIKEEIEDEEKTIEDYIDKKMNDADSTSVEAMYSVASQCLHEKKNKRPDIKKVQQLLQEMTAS
For `CC(C)Nc1c(C(=O)NC[C@@H](F)C(C)(C)O)cnc2sc(-c3cscn3)cc12` [Example 62, (R)-N-(2-fluoro-3-hydroxy-3-methylbutyl)-4-(isopropylamino)-2-(thiazol-4-yl)thieno[2,3-b]pyridine-5-carboxamide], the half-inhibitory concentration (IC50) came to 35.1 nM. Regarding `CC(C)(O)[C@H](F)CNC(=O)c1cnc2sc(-c3cccnc3)nc2c1NC1CCOCC1` [Example 14, (R)-N-(2-fluoro-3-hydroxy-3-methylbutyl)-2-(pyridin-3-yl)-7-((tetrahydro-2H-pyran-4-yl)amino)thiazolo[5,4-b]pyridine-6-carboxamide], the IC50 stood at 39.9 nM. Regarding `CC(C)Nc1c(C(=O)NCCN2CCS(=O)(=O)CC2)cnc2sc(-c3ccc(=O)[nH]c3)cc12` [Example 73, N-(2-(1,1-dioxidothiomorpholino)ethyl)-4-(isopropylamino)-2-(6-oxo-1,6-dihydropyridin-3-yl)thieno[2,3-b]pyridine-5-carboxamide], the IC50 is 24.2 nM. As for `CC(C)Nc1c(-n2cc(CCC(C)(C)O)nn2)cnc2sc(-c3ccncc3)cc12` [Example 75, 4-(1-(4-(isopropylamino)-2-(pyridin-4-yl)thieno[2,3-b]pyridin-5-yl)-1H-1,2,3-triazol-4-yl)-2-methylbutan-2-ol], the figure is 44.8 nM; as for `CC(C)Nc1c(C(=O)NC[C@@H](F)C(C)(C)O)cnc2sc(Nc3ccc(-n4cccn4)cc3)nc12` [Example 15, (R)-2-((4-(1H-pyrazol-1-yl)phenyl)amino)-N-(2-fluoro-3-hydroxy-3-methylbutyl)-7-(isopropylamino)thiazolo[5,4-b]pyridine-6-carboxamide], 2380 nM; as for `CC(=O)O[C@H]1CC[C@H](NC(=O)c2cnc3sc(-c4cccnc4)nc3c2NC(C)C)CC1` [Example 20, (1r,4r)-4-(7-(isopropylamino)-2-(pyridin-3-yl)thiazolo[5,4-b]pyridine-6-carboxamido)cyclohexyl acetate], 12.3 nM. Turning to `CC(C)Nc1c(C(=O)NC[C@@H](F)C(C)(C)O)cnc2sc(-c3cccnc3)nc12` [Example 11, (R)-N-(2-fluoro-3-hydroxy-3-methylbutyl)-7-(isopropylamino)-2-(pyridin-3-yl)thiazolo[5,4-b]pyridine-6-carboxamide], the half-inhibitory concentration (IC50) amounted to 12 nM.

Turning to `C[C@H](CO)Nc1c(C(=O)NCCS(C)(=O)=O)cnc2sc(-c3ccccc3)nc12` [Example 10, (R)-7-((1-hydroxypropan-2-yl)amino)-N-(2-(methylsulfonyl)ethyl)-2-phenylthiazolo[5,4-b] pyridine-6-carboxamide], the IC50 was determined as 734 nM. Turning to `O=C(N[C@H]1CC[C@H](O)CC1)c1cnc2sc(-c3cncs3)cc2c1NC1COC1` [Example 54, N-((1s,4s)-4-hydroxycyclohexyl)-4-(oxetan-3-ylamino)-2-(thiazol-5-yl)thieno[2,3-b]pyridine-5-carboxamide], the half-maximal inhibitory concentration (IC50) worked out at 193 nM. On to `CC(=O)N1CCC(NC(=O)c2cnc3sc(-c4ccc(=O)[nH]c4)cc3c2NC(C)C)CC1` [Example 66, N-(1-acetylpiperidin-4-yl)-4-(isopropylamino)-2-(6-oxo-1,6-dihydropyridin-3-yl)thieno[2,3-b]pyridine-5-carboxamide], for which the IC50 amounted to 37.1 nM. Consider `CC(C)Nc1c(C(=O)NC[C@@H](F)C(C)(C)O)cnc2sc(-c3ccc4nccn4c3)cc12` [Example 26, (R)-N-(2-fluoro-3-hydroxy-3-methylbutyl)-2-(imidazo[1,2-a]pyridin-6-yl)-4-(isopropylamino)thieno[2,3-b]pyridine-5-carboxamide], for which the half-maximal inhibitory concentration (IC50) turned out to be 27.7 nM.

`CC(C)Nc1c(C(=O)NCC2(CO)COC2)cnc2sc(-c3cncs3)cc12` [Example 47, N-((3-(hydroxymethyl)oxetan-3-yl)methyl)-4-(isopropylamino)-2-(thiazol-5-yl)thieno[2,3-b]pyridine-5-carboxamide]: the concentration for half-maximal inhibition (IC50) turned out to be 215 nM.

For `CCNc1c(C(=O)NC[C@@H](F)C(C)(C)O)cnc2sc(-c3ccccc3)nc12` [Example 5, (R)-7-(ethylamino)-N-(2-fluoro-3-hydroxy-3-methylbutyl)-2-phenylthiazolo[5,4-b]pyridine-6-carboxamide], the half-maximal inhibitory concentration (IC50) stood at 46.2 nM.

For the molecule `CC(C)Nc1c(C(=O)NCCC2CCNC2)cnc2sc(-c3ccc(=O)[nH]c3)cc12` (stereo not drawn) [Example 70, 4-(isopropylamino)-2-(6-oxo-1,6-dihydropyridin-3-yl)-N-(2-(pyrrolidin-3-yl)ethyl)thieno[2,3-b]pyridine-5-carboxamide], the IC50 turned out to be 22.6 nM. Turning to `O=C(N[C@H]1CC[C@H](O)CC1)c1cnc2sc(-c3cncs3)cc2c1Nc1cnn(CC(F)F)c1` [Example 49, 4-((1-(2,2-difluoroethyl)-1H-pyrazol-4-yl)amino)-N-((1s,4s)-4-hydroxycyclohexyl)-2-(thiazol-5-yl)thieno[2,3-b]pyridine-5-carboxamide], the concentration for half-maximal inhibition (IC50) was 408 nM. Turning to `CC(C)Nc1c(C(=O)NC(CCO)C2CC2)cnc2sc(-c3cncs3)cc12` (stereo not drawn) [Example 39, N-(1-cyclopropyl-3-hydroxypropyl)-4-(isopropylamino)-2-(thiazol-5-yl)thieno[2,3-b]pyridine-5-carboxamide], the 50% inhibitory concentration (IC50) was 554 nM. As for `CC(C)Nc1c(C(=O)NCc2cocn2)cnc2sc(-c3cncs3)cc12` [Example 41, 4-(isopropylamino)-N-(oxazol-4-ylmethyl)-2-(thiazol-5-yl) thieno[2,3-b]pyridine-5-carboxamide], the figure is 21.6 nM; as for `C[C@H](CO)Nc1c(C(=O)NCCCN2CCOCC2)cnc2sc(-c3ccccc3)nc12` [Example 8, (R)-7-((1-hydroxypropan-2-yl)amino)-N-(3-morpholinopropyl)-2-phenylthiazolo[5,4-b]pyridine-6-carboxamide], 474 nM; as for `CC(C)Nc1c(C(=O)NCCC(F)(F)F)cnc2sc(-c3cccnc3)nc12` [Example 18, 7-(isopropylamino)-2-(pyridin-3-yl)-N-(3,3,3-trifluoropropyl) thiazolo[5,4-b]pyridine-6-carboxamide], 323 nM. Turning to `CC(C)Nc1c(C(=O)NC[C@@H](F)C(C)(C)O)cnc2sc(-c3c[nH]c4ncc(F)cc34)cc12` [Example 28, (R)-2-(5-fluoro-1H-pyrrolo[2,3-b]pyridin-3-yl)-N-(2-fluoro-3-hydroxy-3-methylbutyl)-4-(isopropylamino)thieno[2,3-b]pyridine-5-carboxamide], the IC50 is 75.6 nM. As for `CC(C)(O)[C@H](F)CNC(=O)c1cnc2sc(-c3cncs3)cc2c1Nc1cnn(CC(F)F)c1` [Example 52, (R)-4-((1-(2,2-difluoroethyl)-1H-pyrazol-4-yl)amino)-N-(2-fluoro-3-hydroxy-3-methylbutyl)-2-(thiazol-5-yl)thieno[2,3-b]pyridine-5-carboxamide], the figure is 72.8 nM; as for `CC(C)Nc1c(C(=O)NC[C@@H](F)C(C)(C)O)cnc2sc(-c3ccc(C#N)nc3)cc12` [Example 64, (R)-2-(6-cyanopyridin-3-yl)-N-(2-fluoro-3-hydroxy-3-methylbutyl)-4-(isopropylamino)thieno[2,3-b]pyridine-5-carboxamide], 8.5 nM; as for `CC(C)Nc1c(C(=O)NC[C@@H](F)C(C)(C)O)cnc2sc(Nc3cccnc3)nc12` [Example 16, (R)-N-(2-fluoro-3-hydroxy-3-methylbutyl)-7-(isopropylamino)-2-(pyridin-3-ylamino)thiazolo[5,4-b]pyridine-6-carboxamide], 124 nM. As for `O=C(NCc1ncn[nH]1)c1cnc2sc(-c3cncs3)cc2c1NC1COC1` [Example 55, N-((1H-1,2,4-triazol-5-yl)methyl)-4-(oxetan-3-ylamino)-2-(thiazol-5-yl)thieno[2,3-b]pyridine-5-carboxamide], the figure is 200 nM; as for `CC(C)Nc1c(C(=O)NC[C@@H](F)C(C)(C)O)cnc2sc(-c3ccccc3)nc12` [Example 2, (R)-N-(2-fluoro-3-hydroxy-3-methylbutyl)-7-(isopropylamino)-2-phenylthiazolo[5,4-b]pyridine-6-carboxamide], 15.5 nM. Turning to `CC(C)Nc1c(C(=O)NCCCNS(C)(=O)=O)cnc2sc(-c3ccc(=O)[nH]c3)cc12` [Example 67, 4-(isopropylamino)-N-(3-(methylsulfonamido)propyl)-2-(6-oxo-1,6-dihydropyridin-3-yl)thieno[2,3-b]pyridine-5-carboxamide], the IC50 amounted to 42.8 nM. For the molecule `C[C@H](CCO)NC(=O)c1cnc2sc(-c3cncs3)cc2c1Nc1cnn(CC(F)F)c1` [Example 48, (R)-4-((1-(2,2-difluoroethyl)-1H-pyrazol-4-yl)amino)-N-(4-hydroxybutan-2-yl)-2-(thiazol-5-yl)thieno[2,3-b]pyridine-5-carboxamide], the IC50 turned out to be 1880 nM. As for `CC(C)(O)[C@H](F)CNC(=O)c1cnc2sc(-c3ccccc3)nc2c1NC1CC1` [Example 1, (R)-7-(cyclopropylamino)-N-(2-fluoro-3-hydroxy-3-methylbutyl)-2-phenylthiazolo[5,4-b]pyridine-6-carboxamide], the figure is 39.5 nM. With `CC(C)CCNC(=O)c1cnc2sc(-c3cccnc3)cc2c1NC(C)C` [Example 31, N-isopentyl-4-(isopropylamino)-2-(pyridin-3-yl) thieno[2,3-b]pyridine-5-carboxamide], the IC50 worked out at 35.1 nM. As for `CC(C)CCc1nc(-c2cnc3sc(-c4cncs4)cc3c2NC(C)C)n[nH]1` [Example 77, 5-(5-isopentyl-1H-1,2,4-triazol-3-yl)-N-isopropyl-2-(thiazol-5-yl)thieno[2,3-b]pyridin-4-amine], the figure is 289 nM.

(Values after patent US12304916B2, “Thienopyridinyl and thiazolopyridinyl compounds useful as IRAK4 inhibitors” (BRISTOL-MYERS SQUIBB COMPANY, priority 2019, dated 2025).)
